Assay results reported in article PMC10538222, “Isolation and Characterization of Anti-Inflammatory Compounds from Ficus microcarpa L.f. Stem Bark” (Plants, 2023).
Like-named read-outs stand apart in the source and are kept apart here.

What was measured:
[1] = tested on: carrageenan-induced rat paw edema; experiment: Carrageenan-induced acute inflammation (rat paw edema); format: in vivo, Wistar albino rats; conditions: 10 mg/kg p.o.
Procedure: The acute anti-inflammatory activity of EAFMB was evaluated using the carrageenan-induced rat paw edema model. Experimental animals were randomly divided into four groups, with six animals in each group. Group I (the control group) received a vehicle (1% CMC). […] Groups III and IV (test group) were given EAFMB at 100 and 200 mg/kg p.o doses, respectively. The drugs were administered orally 1 h before the carrageenan injection. The 0.1 mL of freshly prepared carrageenan suspension was injected into the left hind paw of each rat. The paw volume was measured using a Plethysmometer (Ugo Basile 2470, Italy) at 1, 2, 3, 4, 5, and 6 h after carrageenan administration. The results were expressed as a percentage of the increase in paw swelling and a percentage of the inhibition of paw swelling compared to the initial hind paw thickness. % Increase in Paw Volume =Final Paw Volume at specific time point − Intial Paw Volume at 0 h/Intial Paw Volume at 0 h×100 % Inhibition=Paw Volume at of Control − Paw Volume of treated group/Intial Paw VoluPaw Volume at of Control me at 0 h×100

[2] = tested on: CFA-induced rat paw edema; experiment: CFA-induced chronic inflammation (rat paw oedema); format: in vivo, Wistar rats; conditions: 10 mg/kg p.o. once daily
Procedure: (§1) The chronic anti-inflammatory activity of EAFMB was evaluated using the CFA-induced rat paw edema model. Wistar rats of either sex (180 to 200 g) were randomly divided into four groups, each comprising six animals. The control group (Group I) received only a vehicle (0.5% CMC, p.o.). […] Groups III to IV were treated with EAFMB (100 and 200 mg/kg, p.o., respectively) once daily for 21 days. On day 0, chronic inflammation, i.e., arthritis, was induced via injecting 0.1 mL of CFA containing 0.5% of dry heat-killed Mycobacterium tuberculosis in sterile paraffin oil into the sub-plantar region in the left hind paw of rats. The animals were evaluated for the following parameters: • % of a rise or inhibition of oedema
After the CFA injection, the paw oedema was measured using a plethysmograph on day 0 and thereafter on days 4, 8, 14, and 21. The results were expressed as the percent rise in and percent inhibition of paw oedema as per the formulae mentioned in the acute inflammation study. • Hematological Parameters

[3] = tested on: CFA-induced chronic inflammation rats; experiment: Hematological parameters in CFA-induced chronic inflammation; format: in vivo, Wistar rats; conditions: 10 mg/kg p.o. once daily for 21 days; blood on 21st day
Procedure: as §1
On the 21st day, blood was withdrawn through a retro-orbital plexus puncture from all treated groups under light ether anesthesia. The hematological parameters like hemoglobin content, total WBC count, ESR, and RBC were analyzed using Yumizen H550, HORIBA Hematology Analyzer, France.

[4] = target: T1, ovine COX-1 (Ovis aries, UniProt P05979); experiment: Colorimetric COX (ovine) inhibitor screening assay, COX-1; format: biochemical
T1 construct: purchased Cayman Chemical Co. 760111
T1 sequence (P05979 25-600): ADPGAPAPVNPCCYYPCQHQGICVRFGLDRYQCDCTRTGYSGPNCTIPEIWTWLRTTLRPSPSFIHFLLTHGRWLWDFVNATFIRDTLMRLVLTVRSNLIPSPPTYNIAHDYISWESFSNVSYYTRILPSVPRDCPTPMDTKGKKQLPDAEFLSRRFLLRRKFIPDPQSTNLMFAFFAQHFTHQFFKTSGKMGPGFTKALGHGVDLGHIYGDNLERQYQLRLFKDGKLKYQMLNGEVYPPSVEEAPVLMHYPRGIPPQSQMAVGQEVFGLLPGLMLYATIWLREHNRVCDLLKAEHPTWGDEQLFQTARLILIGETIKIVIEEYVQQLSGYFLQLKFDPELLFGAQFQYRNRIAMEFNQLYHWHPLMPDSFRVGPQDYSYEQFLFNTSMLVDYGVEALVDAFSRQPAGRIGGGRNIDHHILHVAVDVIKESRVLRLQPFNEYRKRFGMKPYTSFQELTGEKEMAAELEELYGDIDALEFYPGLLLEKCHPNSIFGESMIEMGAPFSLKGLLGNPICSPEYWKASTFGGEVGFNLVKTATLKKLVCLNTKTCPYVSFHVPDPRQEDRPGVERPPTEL
Source text: (§2) The IC50 is the concentration of tested compounds calculated using the regression equation.

[5] = target: T2, ovine COX-2 (Ovis aries, UniProt P79208); experiment: Colorimetric COX (ovine) inhibitor screening assay, COX-2; format: biochemical
T2 construct: purchased Cayman Chemical Co. 760111
T2 sequence (P79208 17-603): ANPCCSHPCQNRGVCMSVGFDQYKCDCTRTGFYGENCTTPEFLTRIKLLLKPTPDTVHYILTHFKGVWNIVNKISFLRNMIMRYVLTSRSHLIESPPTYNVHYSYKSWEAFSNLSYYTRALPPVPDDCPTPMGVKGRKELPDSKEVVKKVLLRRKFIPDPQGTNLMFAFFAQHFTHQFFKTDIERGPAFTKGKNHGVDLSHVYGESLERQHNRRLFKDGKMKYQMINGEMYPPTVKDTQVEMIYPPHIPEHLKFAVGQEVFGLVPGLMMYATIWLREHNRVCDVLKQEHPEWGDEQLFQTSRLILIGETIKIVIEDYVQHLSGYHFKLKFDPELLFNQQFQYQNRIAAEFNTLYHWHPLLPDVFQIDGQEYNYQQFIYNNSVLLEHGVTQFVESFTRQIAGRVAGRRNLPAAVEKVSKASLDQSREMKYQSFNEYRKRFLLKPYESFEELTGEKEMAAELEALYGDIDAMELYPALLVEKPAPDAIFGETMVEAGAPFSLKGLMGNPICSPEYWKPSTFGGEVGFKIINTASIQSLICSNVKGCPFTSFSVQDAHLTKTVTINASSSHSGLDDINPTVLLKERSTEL
Source text: as §2

COc1ccc2c(c1)c(CC(=O)O)c(C)n2C(=O)c1ccc(Cl)cc1 [Indomethacin, indomethacin] was tested, and the “% Inhibition of paw oedema” value ([1]; 1 h after carrageenan) was 27.78%, the “% Rise in Paw Oedema” value ([1]; 1 h after carrageenan) was 14.28 ± 0.42% and the “% Inhibition of paw oedema” value ([1]; 2 h after carrageenan) was 56.84%. The “% Rise in Paw Oedema” value ([1]; 2 h after carrageenan) was 15.85 ± 0.41%, the “% Inhibition of paw oedema” value ([1]; 3 h after carrageenan) was 57.97% and the “% Rise in Paw Oedema” value ([1]; 3 h after carrageenan) was 18.19 ±0.36%. The “% Inhibition of paw oedema” value ([1]; 4 h after carrageenan) was 59.39%, the “% Rise in Paw Oedema” value ([1]; 4 h after carrageenan) was 21.01 ± 0.51% and the “% Inhibition of paw oedema” value ([1]; 5 h after carrageenan) was 54.37%. For the same compound, the “% Rise in Paw Oedema” value ([1]; 5 h after carrageenan) was 26.18 ± 0.63%, the “% Inhibition of paw oedema” value ([1]; 6 h after carrageenan) was 48.18% and the “% Rise in Paw Oedema” value ([1]; 6 h after carrageenan) was 31.2 ± 0.81%. The “% Inhibition of paw oedema” value ([2]; 4th day after CFA) was 46.78%, the “% Rise in Paw Oedema” value ([2]; 4th day after CFA) was 41.92 ± 1.46% and the “% Inhibition of paw oedema” value ([2]; 8th day after CFA) was 70.16%. For the same compound, the “% Rise in Paw Oedema” value ([2]; 8th day after CFA) was 27.95 ± 1.58%, the “% Inhibition of paw oedema” value ([2]; 14th day after CFA) was 84.48% and the “% Rise in Paw Oedema” value ([2]; 14th day after CFA) was 14.77 ± 1.39%. The “% Inhibition of paw oedema” value ([2]; 21st day after CFA) was 87.35%, the “% Rise in Paw Oedema” value ([2]; 21st day after CFA) was 11.99 ± 0.89% and the ESR [3] was 5.42 ± 0.31 mm/h. The Hb [3] was 14.62 ± 0.27 g%, the RBC [3] was 9.58 ± 0.27 millions/cubic mm and the WBC [3] was 6.37 ± 0.36 *** 10^3/cubic mm.

Oc1cc(O)c2c(c1)OC(c1ccc(O)c(O)c1)C(O)C2 (stereo not shown) [Catechin, catechin] showed an IC50 [4] of 9.02 µM and an IC50 [5] of 50.4 µM.

With O=C(O)C=Cc1ccc(O)cc1 [P-hydroxycinnamic acid, p-hydroxycinnamic acid] the IC50 ([4]; ovine COX-1, colorimetric, TMPD 590 nm, read-out: COX Inhibition (IC50) COX-1) was 229 µM and the IC50 ([5]; ovine COX-2, colorimetric, TMPD 590 nm, read-out: COX Inhibition (IC50) COX-2) was 246 µM.
